The values below come from patent publication US20100120810A1, “COMPOUNDS AND METHODS FOR MODULATING RHO GTPASES” (priority 2007, published 2010).

Molecules are shown by their SMILES. Structures can show the parent of a compound that is named as a salt. Where two headings read alike, the source gives them in different places. A value given as a limit tells only on which side of the number the result lay.

The subject of one experiment is HCT116 cell line. In words: Soft agar assay (anchorage-independent colony formation). Format: cell-based. The following applies: HCT116, 7 days. An excerpt:
Colony formation in soft agar is the most widely used assay to evaluate anchorage-independent growth potential and represents one of the best in vitro assays that correlates strongly with in vivo tumorigenic cell growth potential. Normal cells require adherence and spreading onto a solid substratum in order to remain viable and proliferate. In contrast, cancer cell line HCT116 (ATCC clone number CCL-247) lost this requirement and therefore can form proliferating colonies of cells when suspended in a semisolid agar medium. The assay was performed in 24-well plates, using duplicates wells for each compound concentration. Briefly, a 0.5% Bacto™ Agar (BD Biosciences) bottom layer (prepared in HCT116 complete growth medium supplemented or not with the tested compound) was poured first and allowed to harden (0.3 ml per well). HCT116 were trypsinized to generate a uniform single cell suspension. Five×10^3 cells per well were resuspended in 0.3% agar supplemented with complete growth medium, with or without several compound concentrations to form the top layer (0.3 ml per well). HCT116 were allowed to grow for 7 days in these conditions and then analysed for colonies formation. Analysis was performed from pictures taken under a microscope that are representative from 2 different fields of the well. For each field, 2 different focal plans were taken and were merged using ImageJ software. The number of colonies were scored and colonies' size were measured. IC50 were determined for the number and size of colonies using GraphPad Prism (GraphPad) software. Data are mean values of 2 to 3 independent experiments.

The next experiment deals with T1, Cdc42 (Homo sapiens, UniProt P60953).
T1 construct: GST (N); made in house; host or cells: E. coli BL21 Codon+RIL
T1 sequence (P60953 whole entry, species assumed): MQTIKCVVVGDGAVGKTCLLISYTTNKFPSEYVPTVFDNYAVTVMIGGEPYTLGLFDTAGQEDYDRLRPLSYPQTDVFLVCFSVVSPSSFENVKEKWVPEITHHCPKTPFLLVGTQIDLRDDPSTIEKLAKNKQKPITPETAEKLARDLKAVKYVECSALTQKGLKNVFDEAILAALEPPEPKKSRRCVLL
In words: Nucleotide binding assay: BODIPY-GTP binding to Cdc42. Format: biochemical. The following applies: for IC50: dose-response study; for inhibition at 50 µM: read-out: Cdc42 % inhibition of BODIPY-GTP binding. On the procedure:
(§1) Fluorescence of GTP analog BODIPY-GTP increases when it binds to small G proteins. This property was used to assess ability of compounds to inhibit nucleotide binding to Rac1, Rac1b and Cdc42. 2 μM GST-Rac1 and 6 μg His6-Tiam1-DH/PH were diluted in a buffer containing 20 mM Tris, 50 mM NaCl, and 1 mM MgCl2. This mixture was loaded in a 96-well plate. Fluorescence recording were started (λEx: 485 nm; λEm: 538 nm) using a spectrofluorimeter (Fluoroskan; Thermolab Systems). Assay was initiated by the addition of 2 μM BODIPY-GTP with or without various doses of test compound. Fluorescence values were recorded, and data were processed as follows: background fluorescence (unbound BODIPY-GTP) was retrieved from fluorescence values.
(§2) This assay allows determining whether compounds can inhibit the binding of a fluorescent nucleotide to recombinant small G proteins of interest. The effect of various alkaloid compounds on binding of BODIPY-GTP to Rac1 activated by DH/PH domain of Guanine nucleotide Exchange Factor Tiam1 (Rac1/Tiam1), Rac1b and Cdc42 is described below.

The target of experiment [1] is T2, Rac1 activated by DH/PH domain of Guanine nucleotide Exchange Factor Tiam1 (Rac1/Tiam1) (Homo sapiens, UniProt P63000).
T2 construct: made in house; host or cells: E. coli BL21 Codon+RIL
In words: Nucleotide binding assay: BODIPY-GTP binding to Rac1 activated by Tiam1 DH/PH. The format is biochemical. The note with it: read-out: Rac1 % inhibition of BODIPY-GTP binding. The protocol:
as §1, §2

The next experiment deals with T3, Rac1b (Homo sapiens, UniProt P63000).
T3 construct: GST (N); made in house; host or cells: E. coli BL21 Codon+RIL
Description: Nucleotide binding assay: BODIPY-GTP binding to Rac1b. Format: biochemical. The following applies: for inhibition at 50 µM: read-out: Rac1b % inhibition of BODIPY-GTP binding. On the procedure: as §1, §2

Setting [2] is: Homo sapiens, HCT-116, 168 h, read-out: Soft agar assay IC50, Clone Number.
[3] abbreviates: Homo sapiens, HCT-116, 168 h, read-out: Soft agar assay IC50, Clone Size.
Setting [4] is: final concentration of 50 μM, Rac1/Tiam1.

Usually IC50 stands for the concentration that gives 50% inhibition. As a reminder, the inhibition is the change of the read-out against control, counted positive when it falls.

Consider `C[n+]1cc2c(O)c(O)ccc2c2ccc3cc(O)c(O)cc3c21` [Compound 52, 2,3,7,8-Tetrahydroxy-5-methylbenzo[c]phenanthridinium chloride], for which the IC50 in the experiment with HCT116 cell line (setting [2]) was 9.8 ± 1.3 µM; with HCT116 cell line (setting [3]), 9.5 ± 0.4 µM; on Cdc42, 22 ± 2 µM. Moreover, the inhibition at 50 µM at Cdc42 is 73 ± 4%.
Regarding `O=c1cc(CN2CCOCC2)occ1OCCCCCSc1ccnc2cc(C(F)(F)F)ccc12` [EHT 1864, reference compound], the IC50 in the experiment with HCT116 cell line (read-out: Soft agar assay IC50, Clone Number) is 57.5 ± 4.5 µM; with HCT116 cell line (read-out: Soft agar assay IC50, Clone Size), 19.5 ± 2.5 µM.
In the case of `COc1cc2cc(-c3ccc(Cl)cc3)nc(C)c2cc1OC` [Compound 42, 3-(4-Chlorophenyl)-6,7-dimethoxy-1-methylisoquinolinylium chloride], the inhibition at 50 µM in experiment [1] (setting [4]) turned out to be 18 ± 3%; on Cdc42 (final concentration of 50 μM), 11 ± 2%; on Rac1b (final concentration of 50 μM), 17 ± 3%.
For the compound `COc1cc2cc(-c3ccccc3)nc(C)c2cc1OC` [Compound 44, 6,7-Dimethoxy-1-methyl-3-phenylisoquinolinylium chloride], the results for the inhibition at 50 µM (in experiment [1] (setting [4]); at Cdc42 (final concentration of 50 μM); on Rac1b (final concentration of 50 μM)) were 10 ± 3%, 10 ± 1% and 8 ± 3%, respectively.
In the case of `COc1cc2cc3c4cc(OC)c(OC)cc4cc[n+]3c(C)c2cc1OC` [Compound 8, 8-methyl-2,3,10,11-tetramethoxydibenzo[a,g]quinolizinium chloride, hydrate, reference compound], the results for the inhibition at 50 µM (in experiment [1]; at Cdc42; on Rac1b) were 36 ± 4%, 21 ± 2% and 44 ± 4%, respectively.
Take `COc1cc2cc(-c3cccnc3)nc(C)c2cc1OC` [Compound 36, 6,7-Dimethoxy-1-methyl-3-(pyridin-3-yl)isoquinoline dihydrochloride]: the figures for the inhibition at 50 µM (in experiment [1] (setting [4]); on Cdc42 (final concentration of 50 μM); on Rac1b (final concentration of 50 μM)) were 10 ± 3%, -4 ± 13% and 12 ± 3%, respectively.
As for `COc1cc2cc(-c3ccccc3)[n+](C)cc2cc1OC` [Compound 50, 6,7-Dimethoxy-2-methyl-3-phenylisoquinolinium chloride], the values for the inhibition at 50 µM (in experiment [1] (setting [4]); on Cdc42 (final concentration of 50 μM); on Rac1b (final concentration of 50 μM)) were 3 ± 5%, 10 ± 6% and 10 ± 5%, respectively.
For the compound `COc1cc2cc(-c3ccc(C)cc3)nc(C)c2cc1OC` [Compound 43, 6,7-Dimethoxy-1-methyl-3-p-tolylisoquinolinylium chloride], the results for the inhibition at 50 µM (in experiment [1] (setting [4]); on Cdc42 (final concentration of 50 μM); at Rac1b (final concentration of 50 μM)) were 19 ± 1%, 15 ± 2% and 17 ± 2%, respectively.
With `COc1cc2cc(-c3ccc(O)c(O)c3)nc(C)c2cc1OC` [Compound 26, 4-(6,7-Dimethoxy-1-methylisoquinolin-3-yl)benzene-1,2-diol hydrochloride], the IC50 is 14.8 ± 3.3 µM with HCT116 cell line (setting [2]) and 8.5 ± 0.9 µM in the experiment with HCT116 cell line (setting [3]). Also, at Cdc42 (final concentration of 50 μM), the inhibition at 50 µM was 15 ± 1%.
On to `COc1ccc2c(c1OC)C(c1ccccc1)N1CCc3cc4c(cc3C1=C2)OCO4` (centres unmarked) [Compound 10, 9,10-dimethoxy-8-phenyl-5,8-dihydro-2H-6H-[1,3]dioxolo[4,5-g]isoquino[3,2-a]isoquinoline], for which the inhibition at 50 µM in experiment [1] (setting [4]) was 18 ± 2%; on Cdc42 (final concentration of 50 μM), 17%; on Rac1b (final concentration of 50 μM), 27 ± 2%.
For `COc1cc2cc(-c3cccc(N(S(C)(=O)=O)S(C)(=O)=O)c3)nc(C)c2cc1OC` [Compound 29, N-(3-(6,7-Dimethoxy-1-methylisoquinolin-3-yl)phenyl)-N-(methylsulfonyl)methanesulfonamide hydrochloride], the inhibition at 50 µM in experiment [1] (setting [4]) is -5 ± 2%; at Cdc42 (final concentration of 50 μM), 2 ± 4%; at Rac1b (final concentration of 50 μM) it was -2 ± 2%.
`Cc1c2cc(O)c(O)cc2cc(-c2ccc(O)c(O)c2)[n+]1C` [Compound 45, 3-(3,4-Dihydroxyphenyl)-6,7-dihydroxy-1,2-dimethylisoquinolinium chloride]: the inhibition at 50 µM stood at 22 ± 1% in experiment [1] (setting [4]), 12 ± 1% at Cdc42 (final concentration of 50 μM) and 36 ± 4% on Rac1b (final concentration of 50 μM).
Taken in the same sequence, the figures for `COc1cc2c(cc1OC)CN(Cc1cccc(O)c1O)CC2` [Compound 18, 2-(2,3-Dihydroxybenzyl)-6,7-dimethoxy-1,2,3,4-tetrahydroisoquinolinium chloride] were 1 ± 2%, -8 ± 10% and 4 ± 3%.
Regarding `Cc1c2cc(O)c(O)cc2cc2c3cc(O)c(O)cc3cc[n+]12` [Compound 15, 8-Methyl-isoquino[3,2-a]isoquinolinylium-2,3,10,11-tetraol chloride], the inhibition at 50 µM in experiment [1] (setting [4]) came to 63 ± 4%; on Cdc42 (final concentration of 50 μM) it was 70 ± 3%; on Rac1b (final concentration of 50 μM), 72 ± 4%. In addition, the concentration for half-maximal inhibition (IC50) on Rac1b (dose-response study) was determined as 13.2 ± 4.3 µM.
Turning to `COc1ccc2c(c[n+](C)c3c4cc(O)c(O)cc4ccc23)c1OC` [Compound 51, 2,3-Dihydroxy-7,8-dimethoxy-5-methylbenzo[c]phenanthridinium chloride], the IC50 in the experiment on HCT116 cell line (setting [2]) was more than 50 µM; in the experiment on HCT116 cell line (setting [3]), 11.4 ± 1.9 µM; at Cdc42 it was 78 ± 3 µM. For the same compound, the inhibition at 50 µM on Cdc42 (final concentration of 50 μM) is 38 ± 2%.
Consider `COc1cc2cc(-c3ccc(O)c(O)c3)[n+](C)c(C)c2cc1OC` [Compound 27, 3-(3,4-Dihydroxyphenyl)-6,7-dimethoxy-1,2-dimethylisoquinolinium chloride], for which the inhibition at 50 µM in experiment [1] (setting [4]) was found to be 6 ± 2%; at Cdc42 (final concentration of 50 μM), 5 ± 2%; at Rac1b (final concentration of 50 μM), 17 ± 1%.
On to `COc1ccc(Cc2nccc3cc(OC)c(OC)cc23)cc1OC` [Compound 9, 1-(3,4-dimethoxybenzyl)-6,7-dimethoxyisoquinoline hydrochloride, reference compound], for which the inhibition at 50 µM turned out to be 1 ± 2% in experiment [1], 2 ± 2% at Cdc42 and 5 ± 2% on Rac1b.
Turning to `COc1cc2cc(-c3ccccc3NC(=O)N(C)C)nc(C)c2cc1OC` [Compound 46, 3-(2-(6,7-Dimethoxy-1-methylisoquinolin-3-yl)phenyl)-1,1-dimethylurea hydrochloride], the values for the inhibition at 50 µM (in experiment [1] (setting [4]); at Cdc42 (final concentration of 50 μM); on Rac1b (final concentration of 50 μM)) were 8 ± 3%, 2% and 9 ± 3%, respectively.
Take `COc1ccc(-c2cc3cc(OC)c(OC)cc3c(C)n2)cc1` [Compound 40, 6,7-Dimethoxy-3-(4-methoxyphenyl)-1-methylisoquinolinylium chloride]: the inhibition at 50 µM is 15 ± 3% in experiment [1] (setting [4]), 14 ± 1% on Cdc42 (final concentration of 50 μM) and 17 ± 3% at Rac1b (final concentration of 50 μM).
For the compound `COc1cc2cc(-c3ccc4ccccc4c3)nc(C)c2cc1OC.Cl` [Compound 41, 6,7-Dimethoxy-1-methyl-3-(naphthalen-2-yl)isoquinolinylium chloride], the IC50 was found to be 70.7 ± 5.9 µM with HCT116 cell line (setting [2]) and 44.4 ± 4.5 µM in the experiment on HCT116 cell line (setting [3]). For the same compound, the “Cdc42 % inhibition of BODIPY-GTP binding” value on Cdc42 (final concentration of 50 μM, 50 µM) is on record as 52 ± 4%.
In the case of `Oc1cc2c(cc1O)C1Cc3ccc(O)c(O)c3CN1CC2` (racemic) [Compound 16, (±)-5,8,13,13a-Tetrahydro-6H-isoquino[3,2-a]isoquinolinylium-2,3,9,10-tetraol hydrochloride], the IC50 with HCT116 cell line (setting [2]) worked out at 6.4 ± 1.3 µM; in the experiment with HCT116 cell line (setting [3]) it was 6.2 ± 0.4 µM. Further, the inhibition at 50 µM on Cdc42 came to 4 ± 6%.
